Here are results for three compounds from ChEMBL document CHEMBL1127257, “Ca2+-ATPase inhibitory activity of a locked analogue of thapsigargin” (Bioorg Med Chem Lett, 1994).

The species entered for the assay is Bos taurus. As to the kind of experiment: Inhibitory effect by measuring the ATP-dependent [Ca2+] uptake in membranes isolated from bovine cerebellum. It counts as functional.

Usually IC50 stands for the concentration that gives 50% inhibition. High values mean lower potency, low ones higher potency.

Consider `C/C=C(\C)C(=O)O[C@H]1C(C)=C2[C@H]([C@@H]1OC(=O)CCCCCCC)[C@@](C)(OC(C)=O)C[C@H](OC(=O)CCC)[C@@]1(O)[C@H]2OC[C@@]1(C)O`, for which half-maximal inhibition (Bos taurus, Cerebellum) (IC50) required 0.18 nM. For the compound `CC=C(C)C(=O)O[C@H]1C(C)=C2[C@H]([C@@H]1OC(=O)CCCCCCC)[C@@](C)(OC(C)=O)C[C@H](OC(=O)CCC)[C@@]1(O)[C@H]2OC(=O)[C@@]1(C)O` [THAPSIGARGIN], the IC50 (Bos taurus, Cerebellum) amounted to 0.264 nM. In the case of `C/C=C(/C)C(=O)O[C@H]1C(C)=C2[C@H]([C@@H]1OC(=O)CCCCCCC)[C@@](C)(OC(C)=O)C[C@H](OC(=O)CCC)[C@@]1(O)[C@H]2OC(=O)[C@@]1(C)O` [THAPSIGARGIN], the 50% inhibitory concentration (IC50) is 0.17 nM.
